Laboratory results from US20090215628A1, “Benzoyl-Substituted Alanines” (BASF SE, priority 2006, published 2009).

Tests used:
Test in all cases: greenhouse post-emergence herbicidal test
Assay type in all cases: in vivo
Amaranthus retroflexus = test system: Amaranthus retroflexus
Description: (§1) The seeds of the test plants were sown separately for each species. For the post-emergence treatment, the test plants were first grown to a height of 3 to 15 cm, depending on the plant habit, and only then treated with the active compounds which had been suspended or emulsified in water. For this purpose, the test plants were either sown directly and grown in the same containers, or they were first grown separately as seedlings and transplanted into the test containers a few days prior to treatment. […] (active substance). Depending on the species, the plants were kept at 10-25° C. or 20-35° C. The test period extended over 2 to 4 weeks. During this time, the plants were tended, and their response to the individual treatments was evaluated. Evaluation was carried out using a scale from 0 to 100. 100 means no emergence of the plants, or complete destruction of at least the aerial parts, and 0 means no damage, or normal course of growth. The plants used in the greenhouse experiments belonged to the following species: [table]

Chenopodium album = test system: Chenopodium album
Description: as §1

Setaria viridis = conditions: application rate 1 kg/ha
Description: The seeds of the test plants were sown separately for each species. For the post-emergence treatment, the test plants were first grown to a height of 3 to 15 cm, depending on the plant habit, and only then treated with the active compounds which had been suspended or emulsified in water. For this purpose, the test plants were either sown directly and grown in the same containers, or they were first grown separately as seedlings and transplanted into the test containers a few days prior to treatment. The rate of application for the post-emergence treatment was 1.0 kg/ha of a.s. (active substance). Depending on the species, the plants were kept at 10-25° C. or 20-35° C. The test period extended over 2 to 4 weeks. During this time, the plants were tended, and their response to the individual treatments was evaluated. Evaluation was carried out using a scale from 0 to 100. 100 means no emergence of the plants, or complete destruction of at least the aerial parts, and 0 means no damage, or normal course of growth. The plants used in the greenhouse experiments belonged to the following species: [table]

Galium aparine = conditions: application rate 0.5 kg/ha
Description: as §1

| SMILES | post-emergence activity against Amaranthus retroflexus (Amaranthus retroflexus; application rate 1 kg/ha) | post-emergence activity against Chenopodium album (Chenopodium album; application rate 1 kg/ha) | post-emergence activity against Setaria viridis (Setaria viridis) | post-emergence activity against Amaranthus retroflexus (Amaranthus retroflexus; application rate 0.5 kg/ha) | post-emergence activity against Chenopodium album (Chenopodium album; application rate 0.5 kg/ha) | post-emergence activity against Galium aparine (Galium aparine) |
| --- | --- | --- | --- | --- | --- | --- |
| CNC(=O)C(NC(=O)c1ccc(F)cc1C(F)(F)F)C(CNS(C)(=O)=O)c1ccccc1 (mixture of isomers) [Compound 4.4] | very good | very good | very good |  |  |  |
| CNC(=O)C(NC(=O)c1ccc(F)cc1C(F)(F)F)C(CNC(=O)N(C)C)c1ccccc1C (mixture of isomers) [Compound 4.33] | very good | very good | very good |  |  |  |
| CNC(=O)C(NC(=O)c1ccc(F)cc1C(F)(F)F)C(CNC(C)=O)c1ccccc1C (mixture of isomers) [Compound 4.34] | very good | very good | very good |  |  |  |
| CNC(=O)C(NC(=O)c1ccc(F)cc1C(F)(F)F)C(CNC(C)=O)c1cccc(F)c1C (mixture of isomers) [Compound 4.36] | very good | very good | very good |  |  |  |
| CNC(=O)C(NC(=O)c1ccc(F)cc1C(F)(F)F)C(c1ccccc1)C(C)[N+](=O)[O-] (mixture of isomers) [Compound 5.2] |  |  |  | very good | very good | very good |
| CNC(=O)C(NC(=O)c1ccc(F)cc1C(F)(F)F)C(C[N+](=O)[O-])c1cccc(F)c1 (mixture of isomers) [Compound 5.3] | very good | good |  |  |  |  |
| CNC(=O)C(NC(=O)c1ccc(F)cc1C(F)(F)F)C(C[N+](=O)[O-])c1cccc(F)c1C (mixture of isomers) [Compound 5.4] | very good | very good |  |  |  |  |
| CNC(=O)C(NC(=O)c1ccc(F)cc1C(F)(F)F)C(c1ccccc1C)C(C)O (racemic) [Compound 3.12] |  |  |  | very good | very good | very good |
| CNC(=O)C(NC(=O)c1ccc(F)cc1C(F)(F)F)C(CNC(=O)N(C)C)c1ccccc1 (racemic) [Compound 4.12] | very good | very good | very good |  |  |  |
| CNC(=O)[C@@H](NC(=O)c1ccc(F)cc1C(F)(F)F)[C@H](CNC(C)=O)c1ccccc1 (racemic) [Compound 4.16, N-((1RS,2RS)-3-Acetylamino-1-methylcarbamoyl-2-phenylpropyl)-4-fluoro-2-trifluoromethylbenzamide] | very good | very good | very good |  |  |  |
| CNC(=O)C(NC(=O)c1ccc(F)cc1C(F)(F)F)C(CNC(=O)C(F)(F)F)c1ccccc1 (racemic) [Compound 4.21] | very good | very good | very good |  |  |  |
| CNC(=O)C(NC(=O)c1ccc(F)cc1C(F)(F)F)C(CNC(=O)C(Cl)(Cl)Cl)c1ccccc1 (racemic) [Compound 4.22] | very good | very good | very good |  |  |  |
| CNC(=O)C(NC(=O)c1ccc(F)cc1C(F)(F)F)C(C[N+](=O)[O-])c1ccccc1 (racemic) [Compound 5.1, 4-Fluoro-N-(1-methylcarbamoyl-3-nitro-2-phenylpropyl)-2-trifluoromethylbenzamide] |  |  |  | very good | good | good |
